Type in all cases: cell-based
For data set [1], the system named is 60 human tumor cell line panel. Briefly: NCI 60 cell line one-dose SRB primary anticancer assay. The settings on record: 60 cell lines assay in one dose, 10µM (title; head prints 10.0 mM), 48 h. As to the method:
(§1) A primary anticancer assay was performed for an approximately 60 human tumor cell line panel derived from nine neoplastic diseases, in accordance with the protocol of the Drug Evaluation Branch, National Cancer Institute, Bethesda, MD (Monks A. et al., J. Natl. Cancer Inst 1991, 83, 757-766; Boyd M.R. and Paull K.D., Drug. Dev. Res. 1995, 34, 91-109; Shoemaker R.H., Nat. Rev. Cancer 2006, 6, 813-823). Briefly, tested compounds were added to the culture at a single concentration (10^-5M), and the cultures were incubated for 48 h. End point determinations were made with a protein binding dye, sulforhodamine B (SRB). The results for each tested compound were reported as the growth percentage of the treated cells when compared to that of the untreated control cells. The percentage growth was evaluated spectrophotometrically versus controls not treated with test agents.

Another data set concerns COLO 205. Briefly: NCI one-dose SRB growth assay. The settings on record: Homo sapiens; COLO 205 (Colon Cancer), 10^-5 M, 48 h; read-out: % Growth Inhibition (GI %). How it is done:
as §1

Another data set has as its system HCC-2998. In words: NCI one-dose SRB growth assay. The settings on record: Homo sapiens; HCC-2998 (Colon Cancer), 10^-5 M, 48 h; read-out: % Growth Inhibition (GI %). How it is done:
as §1
(Sulforhodamine B stains cellular protein and so reports cell mass.)

Another data set relates to HOP-62. Briefly: NCI one-dose SRB growth assay. The settings on record: Homo sapiens; HOP-62 (Non-Small Cell Lung Cancer), 10^-5 M, 48 h; read-out: % Growth Inhibition (GI %). How it is done: as §1
A further data set concerns HOP-92. In words: NCI one-dose SRB growth assay. The settings on record: Homo sapiens; HOP-92 (Non-Small Cell Lung Cancer), 10^-5 M, 48 h; read-out: % Growth Inhibition (GI %). As to the method:
as §1

Another data set has as its system IGROV1. Briefly: NCI one-dose SRB growth assay. The settings on record: Homo sapiens, IGROV-1; IGROV1 (Ovarian Cancer), 10^-5 M, 48 h; read-out: % Growth Inhibition (GI %). As to the method:
as §1

A further data set deals with M14. In words: NCI one-dose SRB growth assay. The settings on record: Homo sapiens; M14 (Melanoma), 10^-5 M, 48 h; read-out: % Growth Inhibition (GI %). How it is done: as §1
The test system of another data set is MDA-MB-231/ATCC. Briefly: NCI one-dose SRB growth assay. The following applies: Homo sapiens; MDA-MB- 231/ATCC (Breast Cancer), 10^-5 M, 48 h; read-out: % Growth Inhibition (GI %). How it is done: as §1
Another data set deals with NCI-H322M. In words: NCI one-dose SRB growth assay. The settings on record: Homo sapiens; NCI-H322M (Non-Small Cell Lung Cancer), 10^-5 M, 48 h; read-out: % Growth Inhibition (GI %). How it is done: as §1
A further data set deals with OVCAR-3. In words: NCI one-dose SRB growth assay. The following applies: Homo sapiens; OVCAR-3 (Ovarian Cancer), 10^-5 M, 48 h; read-out: % Growth Inhibition (GI %). How it is done:
as §1

The test system of the next data set is RXF 393. In words: NCI one-dose SRB growth assay. The following applies: Homo sapiens; RXF 393 (Renal Cancer), 10^-5 M, 48 h; read-out: % Growth Inhibition (GI %). As to the method: as §1
For the next data set, the system named is SF-295. Briefly: NCI one-dose SRB growth assay. The following applies: Homo sapiens; SF-295 (CNS Cancer), 10^-5 M, 48 h; read-out: % Growth Inhibition (GI %). As to the method:
as §1

Another data set deals with SK-MEL-2. In words: NCI one-dose SRB growth assay. The settings on record: Homo sapiens; SK-MEL-2 (Melanoma), 10^-5 M, 48 h; read-out: % Growth Inhibition (GI %). As to the method:
as §1

The test system of the next data set is SNB-19. In words: NCI one-dose SRB growth assay. The following applies: Homo sapiens; SNB-19 (CNS Cancer), 10^-5 M, 48 h; read-out: % Growth Inhibition (GI %). As to the method:
as §1

Another data set has as its system UACC-257. In words: NCI one-dose SRB growth assay. The settings on record: Homo sapiens; UACC-257 (Melanoma), 10^-5 M, 48 h; read-out: % Growth Inhibition (GI %). How it is done:
as §1

The next data set concerns UO-31. Briefly: NCI one-dose SRB growth assay. The settings on record: Homo sapiens; UO-31 (Renal Cancer), 10^-5 M, 48 h; read-out: % Growth Inhibition (GI %). As to the method:
as §1

The record followed here is EP2987533B1, “7-substituted piperazin-1-yl fluoroquinolone compounds, their use in the treatment of cancer, pharmaceutical compositions and a method for preparation” (priority 2014, dated 2016).

Bounds are passed on as bounds.

By inhibition is commonly meant the change of the read-out against control, counted positive when it falls. For `CCn1cc(C(=O)O)c(=O)c2cc(F)c(N3CCN(S(=O)(=O)c4c(C)cc(C)cc4C)CC3)cc21` [Compound 6a], the “PCE (Positive cytotoxic effect: ratio between number of cell lines with percentage growth inhibition from 10 to >100 and total number of cell lines)” value in [1] is reported as 46/58. Besides, the “RGI % (Range of growth inhibition percentage)” value in data set [1] is 66.90 to 10.12%. Also, the inhibition at 10 µM is 18.3% in [1] (Homo sapiens, read-out: MGI % (Mean growth inhibition percentage)); less than 10% in the data set with COLO 205; 17.5% with HCC-2998; 28.5% in the data set with HOP-62; 12.6% in the data set on HOP-92; 20.6% in the data set on IGROV1. Also, the inhibition at 10 µM in the data set on M14 came out at 24.4%; in the data set with MDA-MB-231/ATCC, 16.3%; in the data set on NCI-H322M, 16.5%; in the data set with OVCAR-3 it was 10.8%; in the data set on RXF 393 it was 11.1%; in the data set with SF-295, 51.6%. Also, the inhibition at 10 µM was 11.3% with SK-MEL-2, 10.1% in the data set on SNB-19, less than 10% with UACC-257 and 66.9% in the data set on UO-31.
